Reference: patent US20110172296A1, “MODULATION OF TRANSFORMING GROWTH FACTOR-BETA 1 EXPRESSION” (priority 2010, published 2011)
Several values for one entry are separate records, joined by “and”; a condition that tells them apart may be missing. Equal values may be shown once. In the oligonucleotide strings, read from the 5' end, every base follows the letter of its sugar. An asterisk marks phosphorothioate; unmarked linkages are phosphodiester. Other units and linkages are bracketed, terminal groups are in braces. A string of capitals states the bases alone. e = 2'-O-(2-methoxyethyl) (MOE); [5mC] = 5-methylcytosine; d = 2'-deoxy (DNA)

Tested on: human TGF-beta1 mRNA
Experiment: Antisense inhibition of human TGF-beta1 mRNA in HuVEC cells, single 10 nM dose, Lipofectamine 2000 (Example 2)
Assay type: cell-based
Conditions: for % inhibition: 10 nM oligonucleotide, HuVEC, relative to untreated control cells; for inhibition of a TGF-beta1 mRNA: threshold lists of Oligo IDs, 10 nM
Protocol: Antisense oligonucleotides targeted to a TGF-beta1 nucleic acid were tested for their effects on TGF-beta1 mRNA in vitro. Cultured HuVEC cells at a density of 5,000 cells per well were transfected using Lipofectamine™ 2000 reagent with 10 nM antisense oligonucleotide for 4 hours. After a recovery period of approximately 24 hours, RNA was isolated from the cells and TGF-beta1 mRNA levels were measured by quantitative real-time PCR. TGF-beta1 mRNA levels were adjusted according to total RNA content, as measured by RIBOGREEN®. Results are presented as percent inhibition of TGF-beta1, relative to untreated control cells.
The chimeric antisense oligonucleotides in Tables 1 and 2 were designed as 2-13-5 MOE gapmers. Antisense molecules with this motif targeting TGF-beta1 are unique, and represent a novel chemical structure for an ASO directed against this target. The gapmers are 20 nucleotides in length, wherein the central gap segments are comprised of thirteen 2′-deoxynucleotides and are flanked on the 5′ side by wings comprising two nucleotides each and on the 3′ side by wings comprising five nucleotides each. Each nucleotide in the 5′ wing segment and each nucleotide in the 3′ wing segment has a 2′-MOE modification. The internucleoside linkages throughout each gapmer are phosphorothioate (P═S) linkages. All cytosine residues throughout each gapmer are 5-methylcytosines. “Target start site” indicates the 5′-most nucleotide to which the gapmer is targeted. “Target stop site” indicates the 3′-most nucleotide to which the gapmer is targeted. Each gapmer listed in Table 1 is targeted to SEQ ID NO: 1 (GENBANK Accession No. NM_000660.3). Each gapmer listed in Table 2 is targeted to SEQ ID NO: 2 (GENBANK Accession No. NT 011109.15 truncated from 14103000 to […]).

[1] = gapmers targeted to SEQ ID NO: 1
[2] = gapmers targeted to SEQ ID NO: 2

Substance | % inhibition [1] [%] | inhibition of a TGF-beta1 mRNA | % inhibition [2] [%]
414029 (antisense eG*eA*dG*d[5mC]*dT*d[5mC]*dT*dG*dA*dT*dG*dT*dG*dT*dT*eG*eA*eA*eG*eA) [compound 414029] | 73 | 60% and 65% and 70% | –
414030 (antisense e[5mC]*eT*dA*dA*dG*dG*d[5mC]*dG*dA*dA*dA*dG*d[5mC]*d[5mC]*d[5mC]*eT*e[5mC]*eA*eA*eT) [compound 414030] | 60 | 60% | –
414031 (antisense eA*eT*dG*dT*d[5mC]*d[5mC]*dA*d[5mC]*dT*dT*dG*d[5mC]*dA*dG*dT*eG*eT*eG*eT*eT) [compound 414031] | 66 | 60% and 65% | –
414032 (antisense eG*eG*dG*dT*dT*dA*dT*dG*d[5mC]*dT*dG*dG*dT*dT*dG*eT*eA*e[5mC]*eA*eG) [compound 414032] | 80 | 60% and 65% and 70% and 75% and 80% | –
414033 (antisense e[5mC]*eT*d[5mC]*d[5mC]*dA*d[5mC]*d[5mC]*dT*dT*dG*dG*dG*d[5mC]*dT*dT*eG*e[5mC]*eG*eG*e[5mC]) [compound 414033] | 80 | 60% and 65% and 70% and 75% and 80% | –
414034 (antisense e[5mC]*e[5mC]*dT*dT*dA*dA*dA*dT*dA*d[5mC]*dA*dG*d[5mC]*d[5mC]*d[5mC]*e[5mC]*e[5mC]*eA*eT*eG) [compound 414034] | 68 | 60% and 65% | –
414038 (antisense eA*e[5mC]*dG*dG*dG*dT*dG*dT*d[5mC]*d[5mC]*dT*dT*dA*dA*dA*eT*eA*e[5mC]*eA*eG) [compound 414038] | 85 | 60% and 65% and 70% and 75% and 80% and 85% | –
414039 (antisense eG*e[5mC]*dA*d[5mC]*dG*dG*dG*dT*dG*dT*d[5mC]*d[5mC]*dT*dT*dA*eA*eA*eT*eA*e[5mC]) [compound 414039] | 83 | 60% and 65% and 70% and 75% and 80% | –
414041 (antisense eA*e[5mC]*dA*dG*dA*dG*dA*dT*d[5mC]*d[5mC]*dG*d[5mC]*dA*dG*dT*e[5mC]*e[5mC]*eT*e[5mC]*eT) [compound 414041] | 74 | 60% and 65% and 70% | –
414042 (antisense e[5mC]*eG*d[5mC]*d[5mC]*d[5mC]*dA*dA*dT*dG*dA*d[5mC]*dA*d[5mC]*dA*dG*eA*eG*eA*eT*e[5mC]) [compound 414042] | 68 | 60% and 65% | –
414043 (antisense e[5mC]*e[5mC]*dT*dT*dG*dA*dT*dG*d[5mC]*d[5mC]*dG*dG*dG*d[5mC]*dA*eA*eA*eG*eG*eA) [compound 414043] | 64 | 60% | –
414044 (antisense eA*eT*d[5mC]*dT*dA*dA*d[5mC]*dT*dA*d[5mC]*dA*dG*dT*dA*dG*eT*eG*eT*eT*e[5mC]) [compound 414044] | 31 | – | –
414045 (antisense eA*eG*d[5mC]*d[5mC]*dA*dG*dT*dT*dT*d[5mC]*dT*dT*d[5mC]*dT*dG*e[5mC]*e[5mC]*eA*eG*eT) [compound 414045] | – | 60% and 65% and 70% and 75% and 80% | 80
414046 (antisense eG*eT*dG*dA*dA*dA*d[5mC]*dA*d[5mC]*d[5mC]*dG*dA*dG*dG*dA*e[5mC]*eA*e[5mC]*e[5mC]*eT) [compound 414046] | – | 60% and 65% | 67
414047 (antisense e[5mC]*e[5mC]*dT*dG*d[5mC]*d[5mC]*d[5mC]*d[5mC]*dT*dT*dG*dG*dT*dG*dG*eA*eA*eG*e[5mC]*eG) [compound 414047] | – | – | 41
414048 (antisense eG*eG*dT*dT*dT*d[5mC]*d[5mC]*d[5mC]*d[5mC]*dA*dG*d[5mC]*d[5mC]*dA*d[5mC]*e[5mC]*e[5mC]*eT*eG*eA) [compound 414048] | – | 60% | 61
414049 (antisense e[5mC]*eT*dG*dA*dG*dT*dG*dG*dG*dA*dG*d[5mC]*d[5mC]*d[5mC]*d[5mC]*eG*e[5mC]*e[5mC]*e[5mC]*eG) [compound 414049] | – | – | 53

Substance | % inhibition [1] [%] | inhibition of a TGF-beta1 mRNA | % inhibition [2] [%]
414050 (antisense eT*eT*d[5mC]*d[5mC]*d[5mC]*d[5mC]*dA*dA*dG*dG*d[5mC]*dT*d[5mC]*dT*dG*eA*eA*e[5mC]*e[5mC]*eA) [compound 414050] | – | 60% and 65% and 70% and 75% and 80% | 82
414051 (antisense eG*eT*d[5mC]*dA*dG*dT*dG*dT*dT*dA*dA*dA*dG*dG*dA*eA*e[5mC]*e[5mC]*eT*e[5mC]) [compound 414051] | – | – | 36
414052 (antisense eA*e[5mC]*dA*d[5mC]*dA*dT*dG*dT*dG*d[5mC]*dA*dT*dT*dT*dG*eT*eT*eG*eG*eG) [compound 414052] | – | – | 52
414053 (antisense eT*eT*dG*dG*d[5mC]*d[5mC]*d[5mC]*dG*dG*dA*dG*dG*dT*dT*dA*e[5mC]*eT*e[5mC]*eA*eG) [compound 414053] | – | – | 52
414054 (antisense eT*eG*dA*dA*dG*dT*dT*d[5mC]*dA*dT*dT*d[5mC]*dT*dG*dG*eG*eT*eA*eG*eG) [compound 414054] | – | – | 51
414055 (antisense eA*eT*dT*dA*dG*dT*dT*dT*dT*d[5mC]*d[5mC]*dA*d[5mC]*d[5mC]*d[5mC]*eT*eT*eA*eA*e[5mC]) [compound 414055] | – | – | 53
414056 (antisense eT*eT*dA*dT*dA*d[5mC]*d[5mC]*d[5mC]*dG*dT*dT*dT*dA*dA*dT*eA*eG*eA*eT*eG) [compound 414056] | – | – | 41
414057 (antisense eT*eA*d[5mC]*dA*d[5mC]*dT*dG*dG*dT*d[5mC]*dA*d[5mC]*dT*d[5mC]*dA*eA*eT*e[5mC]*eA*eT) [compound 414057] | – | – | 58
414059 (antisense e[5mC]*eA*dA*dG*dA*d[5mC]*dA*dG*dA*dG*dT*dG*dA*d[5mC]*dT*e[5mC]*eT*eA*eG*eA) [compound 414059] | – | 60% and 65% | 66
414060 (antisense eA*e[5mC]*dA*dG*d[5mC]*dA*dA*dT*dA*dA*d[5mC]*dA*dT*dT*dA*eA*eG*e[5mC]*eT*e[5mC]) [compound 414060] | – | – | 31
414061 (antisense eT*eG*dT*dG*dT*dG*dA*d[5mC]*d[5mC]*dA*dT*dG*dG*dG*d[5mC]*eA*eG*eT*eT*eA) [compound 414061] | – | 60% and 65% | 69
414062 (antisense e[5mC]*e[5mC]*d[5mC]*d[5mC]*dT*dA*dA*dA*dA*dT*dG*d[5mC]*dA*dG*dA*eG*eT*eA*eA*eG) [compound 414062] | – | 60% and 65% and 70% | 72
414063 (antisense eA*eA*dG*dT*d[5mC]*dG*dA*d[5mC]*dT*dA*dA*dG*dG*d[5mC]*dT*eG*eG*e[5mC]*eA*e[5mC]) [compound 414063] | – | 60% and 65% and 70% and 75% and 80% | 80
414064 (antisense eT*eG*dT*dG*dA*d[5mC]*d[5mC]*dT*dT*dG*dA*dG*dG*dA*dA*eG*eT*eG*eG*eT) [compound 414064] | – | 60% | 61
414065 (antisense eA*eA*dA*dT*dG*dA*dA*dG*dG*dG*dA*dG*dG*d[5mC]*dG*eA*eT*e[5mC]*eA*eG) [compound 414065] | – | – | 24
414066 (antisense eG*eT*dG*dG*dA*d[5mC]*d[5mC]*dT*dT*dG*dT*dA*dA*d[5mC]*d[5mC]*eA*eG*e[5mC]*e[5mC]*eG) [compound 414066] | – | 60% and 65% and 70% and 75% and 80% | 80
414067 (antisense eT*e[5mC]*d[5mC]*dT*dA*dG*dG*dA*dT*dG*d[5mC]*dA*dA*dA*dG*eA*eG*eT*e[5mC]*eT) [compound 414067] | – | 60% and 65% and 70% | 71
